Measured values: article PMC5368959, “Uricosuric targets of tranilast” (Pharmacology Research & Perspectives, 2017)
Several values for one entry are separate records, joined by “and”; a condition that tells them apart may be missing. Equal entries are not always repeated. Where two headings read alike, the source gives them in different places.

Legend:
URAT1 = target: T1, URAT1 (Homo sapiens, UniProt Q96S37); assay: [14C]-nicotinate uptake by URAT1-expressing Xenopus oocytes; format: cell-based
T1 sequence (Q96S37 1-553): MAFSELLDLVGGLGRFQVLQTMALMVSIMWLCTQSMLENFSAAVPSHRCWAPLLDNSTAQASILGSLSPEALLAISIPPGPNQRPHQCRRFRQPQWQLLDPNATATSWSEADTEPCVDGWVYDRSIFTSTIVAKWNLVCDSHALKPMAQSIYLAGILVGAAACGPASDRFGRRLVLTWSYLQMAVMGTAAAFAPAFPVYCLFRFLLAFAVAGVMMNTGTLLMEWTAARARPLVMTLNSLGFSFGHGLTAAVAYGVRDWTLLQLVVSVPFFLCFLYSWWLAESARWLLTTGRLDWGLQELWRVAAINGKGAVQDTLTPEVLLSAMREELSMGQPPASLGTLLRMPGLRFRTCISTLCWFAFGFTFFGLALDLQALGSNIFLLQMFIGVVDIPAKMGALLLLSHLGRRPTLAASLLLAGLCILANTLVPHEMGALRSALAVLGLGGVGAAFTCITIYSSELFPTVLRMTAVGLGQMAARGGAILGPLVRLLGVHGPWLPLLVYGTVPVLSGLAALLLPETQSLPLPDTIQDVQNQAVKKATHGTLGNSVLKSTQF
Source text: (§1) For uptake experiments, oocytes were washed four times with ND96 medium (pH 7.4) without pyruvate and gentamycin.
Data are mean ± S.E. with n = 12–15.

OAT10 = OAT10 (Homo sapiens, UniProt Q9Y226); assay: [14C]-nicotinate uptake by OAT10-expressing Xenopus oocytes; format: cell-based; details: for Inhibition of OAT10 [14C]-nicotinate uptake: drug 100 μmol/L
Protocol: as §1
Chloride ion‐dependence was also assessed; in 0 Cl^− bath, NaCl was replaced by Na‐gluconate (Na‐Gluc), KCl by K‐gluconate (K‐Gluc), MgCl2 by Mg‐gluconate, and CaCl2 by Ca‐gluconate. […] Data are mean ± S.E. with n = 12–15.

OAT1 = target: T2, OAT1 (Homo sapiens, UniProt Q4U2R8); assay: [14C]-urate uptake by OAT1-expressing Xenopus oocytes; format: cell-based; details: drug 100 μmol/L
T2 sequence (Q4U2R8 1-563): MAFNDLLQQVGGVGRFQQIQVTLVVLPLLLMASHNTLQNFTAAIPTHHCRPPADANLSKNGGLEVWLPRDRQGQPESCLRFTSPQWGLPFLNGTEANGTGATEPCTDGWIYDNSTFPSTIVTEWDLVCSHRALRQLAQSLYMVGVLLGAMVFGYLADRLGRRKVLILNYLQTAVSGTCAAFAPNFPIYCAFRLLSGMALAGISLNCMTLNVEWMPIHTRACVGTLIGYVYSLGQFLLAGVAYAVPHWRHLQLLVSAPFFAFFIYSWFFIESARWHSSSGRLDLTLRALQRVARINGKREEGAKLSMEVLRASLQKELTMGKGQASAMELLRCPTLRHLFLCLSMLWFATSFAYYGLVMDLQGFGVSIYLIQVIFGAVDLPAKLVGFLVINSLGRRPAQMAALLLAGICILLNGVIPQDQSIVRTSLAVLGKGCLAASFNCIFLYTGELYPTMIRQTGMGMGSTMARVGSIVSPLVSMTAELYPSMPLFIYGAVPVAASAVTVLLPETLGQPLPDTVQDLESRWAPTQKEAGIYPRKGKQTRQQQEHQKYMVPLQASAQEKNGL
Source text: as §1

[1] = set-up: method as in Sundy and Kitt 2010; details: at least partially due to uricosuric effects; ref Sundy and Kitt 2010; cited from earlier work
[2] = system: inflammation induced by monosodium urate (MSU) crystals; set-up: method as in Serafini and Emerling 2010; details: ref Serafini and Emerling 2010; cited from earlier work
ABCG2 = target: T3, ABCG2 (Homo sapiens, UniProt Q9UNQ0); assay: [14C]-urate efflux from ABCG2-expressing Xenopus oocytes
T3 sequence (Q9UNQ0 1-655): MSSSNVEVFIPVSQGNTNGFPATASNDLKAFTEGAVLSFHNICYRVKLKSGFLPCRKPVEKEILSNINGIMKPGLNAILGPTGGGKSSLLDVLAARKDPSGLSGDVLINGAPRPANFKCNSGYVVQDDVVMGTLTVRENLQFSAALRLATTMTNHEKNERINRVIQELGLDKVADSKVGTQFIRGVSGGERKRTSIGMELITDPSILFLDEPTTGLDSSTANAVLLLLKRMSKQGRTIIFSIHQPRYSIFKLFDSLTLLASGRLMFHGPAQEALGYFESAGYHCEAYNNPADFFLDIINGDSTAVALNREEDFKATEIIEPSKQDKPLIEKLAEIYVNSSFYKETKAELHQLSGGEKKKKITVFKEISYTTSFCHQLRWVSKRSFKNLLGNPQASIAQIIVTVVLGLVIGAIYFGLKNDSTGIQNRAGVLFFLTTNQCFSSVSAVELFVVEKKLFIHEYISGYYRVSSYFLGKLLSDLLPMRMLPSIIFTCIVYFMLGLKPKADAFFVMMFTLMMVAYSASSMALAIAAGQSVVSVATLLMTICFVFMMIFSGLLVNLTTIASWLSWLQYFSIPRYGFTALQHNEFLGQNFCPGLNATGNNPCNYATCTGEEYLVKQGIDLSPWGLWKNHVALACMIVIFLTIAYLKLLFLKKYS
Protocol: In brief, a small incision was made in the abdomen and a lobe of ovary was removed. […] Oocytes were then defolliculated by treatment with 3.5 mg/mL collagenase A (Roche, Indianapolis, IN) in Ca^2+‐free ND96 medium for 60–70 min with gentle agitation at room temperature (25°C).
The indicated full‐length cDNAs were subcloned into the pGEMHE oocyte expression plasmid, 3′ of a T7 promoter and flanked by Xenopus laevis‐specific 5′‐ and 3′‐UTRs. Plasmid DNA was linearized at the 3′‐end of cDNAs by Not1, Nhe1, or EcoR1 digestion, and cRNA was in vitro transcribed by using T7 RNA polymerase (mMESSAGE mMACHINE; Ambion, Austin, TX) following the suppliers protocol. Isopropanol‐precipitated, in vitro transcribed capped cRNA was washed with 70% ethanol, dried and then dissolved in sterile nuclease‐free water. The yield and RNA integrity of the capped cRNA samples were assessed by spectroscopy (at 260 nm) and 1% agarose‐formaldehyde gel electrophoresis, respectively. All cRNA samples were stored frozen in aliquots at −80°C until used. About 18 h after isolation, oocytes were injected with 50 nL of sterile water, 50 mmol/L tris pH 7.4, or 50 nL of a cRNA solution in 50 mmol/L tris buffer (pH 7.4) containing 25 ng of the indicated cRNA using fine‐tipped micropipettes by a microinjector (World Precision Instrument Inc. Sarasota, FL).
Preinjected oocytes were then incubated in ND96 medium for 1 h at 16°C for recovery. After incubation, the oocytes were washed in cold ND96 medium four times to remove any external adhering [^14C]‐urate from the oocytes and then subjected to efflux for 1 h at room temperature (~25°C) in ND96 medium (pH 7.4) in the absence or presence of drug.
Radioisotope content of each individual oocyte was measured by scintillation counter after solubilization in 0.3 mL of 10% (v/v) SDS and addition of 2.5 mL of scintillation fluid. […] Statistical analyses including linear regressions were done using SigmaPlot software.
We investigated the effect of tranilast (added in the efflux assay medium) on the [^14C]‐urate efflux activity of ABCG2 expressed in Xenopus laevis oocytes. […]

[3] = PZA-preloaded oocytes, read-out: IC50, OAT10-mediated [14C]-nicotinate/PZA exchange
[4] = human, Xenopus laevis oocytes expressing ABCG2, pH 7.4, probe [14C]-urate

Chain of OAT10 (Q9Y226 whole entry): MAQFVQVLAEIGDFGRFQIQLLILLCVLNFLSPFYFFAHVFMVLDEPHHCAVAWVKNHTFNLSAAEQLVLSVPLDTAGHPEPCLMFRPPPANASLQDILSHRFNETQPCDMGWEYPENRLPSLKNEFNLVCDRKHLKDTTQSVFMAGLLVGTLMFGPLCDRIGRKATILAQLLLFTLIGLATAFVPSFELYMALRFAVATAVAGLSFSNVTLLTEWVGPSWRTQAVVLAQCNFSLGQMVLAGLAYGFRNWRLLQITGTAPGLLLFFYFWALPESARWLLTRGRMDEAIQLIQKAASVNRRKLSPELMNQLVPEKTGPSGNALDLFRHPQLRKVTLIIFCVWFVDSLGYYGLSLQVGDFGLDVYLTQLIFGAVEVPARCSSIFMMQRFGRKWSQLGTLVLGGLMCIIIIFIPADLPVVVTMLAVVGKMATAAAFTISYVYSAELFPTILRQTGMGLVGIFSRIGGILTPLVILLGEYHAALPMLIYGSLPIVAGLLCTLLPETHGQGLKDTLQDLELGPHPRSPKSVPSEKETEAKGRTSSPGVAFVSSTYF

Compound	IC50 (URAT1; PZA-preloaded oocytes, 40 μmol/L nicotinate, read-out: IC50, URAT1-mediated [14C]-nicotinate uptake ([14C]-nicotinate/PZA exchange))	IC50 (OAT10; [3]) [µM]	Inhibition of OAT10 [14C]-nicotinate uptake (OAT10)	IC50 (OAT10; without preloading, data not shown, read-out: IC50, OAT10-mediated [14C]-nicotinate uptake) [µM]	Inhibition of OAT1-mediated urate uptake (OAT1)	Effect on SUA in healthy human subjects [1]	Effect on inflammation induced by MSU crystals in vivo [2]	Effect on ABCG2-mediated urate efflux (ABCG2; drug 100 μmol/L, efflux 1 h)	inhibition at 1 h, 100 μmol/L (ABCG2; [4]) [%]	Sensitivity of URAT1-mediated [14C]-nicotinate uptake to drug (URAT1; data not shown)	inhibition at 1 h, 1 mmol/L (ABCG2; [4]) [%]
COc1ccc(C=CC(=O)Nc2ccccc2C(=O)O)cc1OC [tranilast, N‐(3,4‐dimethoxycinnamoyl) anthranilic acid]	~190 µM and 190 µM and > 185 µM	~43.1	inhibited	~42	effectively inhibited	potent reduction in SUA	suppresses inflammation	remained unaffected	–	–	–
CCc1oc2ccccc2c1C(=O)c1cc(Br)c(O)c(Br)c1 [benzbromarone]	–	~22.8	inhibited	–	effectively inhibited	–	–	–	~48	–	–
CCCN(CCC)S(=O)(=O)c1ccc(C(=O)O)cc1 [probenecid]	–	–	–	–	–	–	–	–	–	very sensitive	~20
